Where a name gives a salt, the structure may show the parent alone.
Experiments:
[1] = tested on: histamine-induced dermal vascular hyperpermeability; test: Effect on histamine-induced dermal vascular hyperpermeability in guinea pigs; type: in vivo, guinea pig; details: 3 mg/kg oral administration, 1 hour before intradermal histamine, male Hartley guinea pigs; for inhibition in vivo at 3 mg/kg: Cavia porcellus
Description: Effect on Histamine-induced Dermal Vascular Hyperpermeability in Guinea Pigs
Male Hartley guinea pigs (weighing about 500 g) were used. […] After 30 minutes, the animal was hit on its head to make it unconscious, and cut at its neck to sacrifice by exsanguination. The dorsal skin was peeled and examined for the long and short diameters (mm) of each blue spot which were then multiplied to give a product, which was averaged to give a vascular permeability index. Each substance was suspended in 5% gum arabic solution, and given orally in the volume of 0.2 ml/100 g body weight 1 hour before histamine administration. Control animals received the same volume of 5% gum arabic solution. A % inhibition of this reaction was calculated according to [Equation 1].
% Inhibition of histamine-induced dermal vascular hyperpermeability=100×(1-vascular permeability index in treatment group/vascular permeability index in control group) [Equation 1]

guinea-pig eosinophils = test: Chemotaxis inhibition assay: LTB4-induced chemotaxis in guinea-pig eosinophils; type: cell-based; details: test substance 1×10^−5 M, LTB4 10^−8 M, 2 hours; for inhibition at 10 µM: Cavia porcellus, Eosinophil
Description: 1) Guinea-pig Eosinophil Preparation
Male Hartley guinea-pigs received 2 ml of equine serum (Bio-Whittaker, Inc) intraperitoneally once a week for successive 8 weeks. 48 hours after the last administration, 75 ml of physiological saline was injected into the peritoneal cavity, and the fluid was recovered and centrifuged at 400 G for 5 minutes. […] Erythrocytes in the isolated cell pellet, if any, were removed by hypotonic treatment (suspended in water for 30 seconds).
2) Chemotaxis Inhibition Assay
600 μl of LTB4 suspended in Hanks-Hepes-HSA (final concentration of 10^−8 M, Cascade Biochemical Ltd.) was placed in the lower compartment of a 24-well plate and kept at 37° C. for 30 minutes in a CO2 gas incubator. After mounting a Chemotaxicell (polycarbonate membrane, pore size 3 μm, thickness 10 μm), which served as an upper compartment, on the 24-well plate described above, 200 μl of eosinophil suspension (5×10^6 cells/ml), which had been incubated at 37° C. for 15 minutes in a thermostat chamber, was added to the upper compartment. After allowing to react for 2 hours in the CO2 gas incubator, the Chemotaxicell was removed, and 60 μl of 2% (w/v) EDTA solution in physiological saline was added to the lower compartment. After cooling on ice, the cells which underwent the chemotaxis into the lower compartment were counted using a blood cell counter (Coulter Counter (trade name)). In the procedure described above, the test substance was dissolved in N,N-dimethylformamide (DMF) and added to the upper and lower compartments at the final concentration of 10^−5 M.
% Chemotaxis inhibition=[…] [Equation 2]
The results are shown in [Table 2].

SMILES	inhibition in vivo at 3 mg/kg [1] [%]	further results
O=c1[nH]c(=O)n(CCCCN2CCC(OC(c3ccccc3)c3ccccc3)CC2)c2ccccc12 [Example 2, 2,4-Dioxo-1-[4-(4-diphenylmethoxy-1-piperidinyl)butyl]-1,2,3,4-tetrahydroquinazoline]	88	melting point: 131 to 133 °C; inhibition at 10 µM (guinea-pig eosinophils): 91%
O=c1[nH]c(=O)n(CCCCN2CCC(OC(c3ccccc3)c3ccccc3)CC2)c2ccc([N+](=O)[O-])cc12 [Example 12, 2,4-Dioxo-1-[4-(4-diphenylmethoxypiperidino)butyl]-6-nitro-1,2,3,4-tetrahydroquinazoline]	80	melting point: 211 to 213 °C; inhibition at 10 µM (guinea-pig eosinophils): 66%
CCOC(=O)CCn1c(=O)c2ccccc2n(CCCCN2CCC(OC(c3ccccc3)c3ccccc3)CC2)c1=O [Example 17, Ethyl 2,4-dioxo-1-[4-(4-diphenylmethoxypiperidino)butyl]-1,2,3,4-tetrahydroquinazoline-3-propionate hydrochloride]	91	–
CCOC(=O)C(C)(C)n1c(=O)c2ccccc2n(CCCCN2CCC(OC(c3ccccc3)c3ccccc3)CC2)c1=O.Cl [Example 27]	–	Inhibition of histamine-induced dermal vascular hyperpermeability (%) [1]: 94%; Inhibition (%) of LTB4-induced chemotaxis (guinea-pig eosinophils): 52%
COC(=O)C(C)(C)n1c(=O)c2ccccc2n(CCCCN2CCC(OC(c3ccccc3)c3ccccc3)CC2)c1=O.Cl [Example 30]	–	Inhibition of histamine-induced dermal vascular hyperpermeability (%) [1]: 88%; Inhibition (%) of LTB4-induced chemotaxis (guinea-pig eosinophils): 77%
CCOC(=O)C(C)(C)n1c(=O)c2cc(F)ccc2n(CCCCN2CCC(OC(c3ccccc3)c3ccccc3)CC2)c1=O [Example 33, Ethyl 2-[1-[4-(4-diphenylmethoxypiperidino)butyl]-2,4-dioxo-6-fluoro-1,2,3,4-tetrahydroquinazolin-3-yl]isobutyrate hydrochloride]	88	inhibition at 10 µM (guinea-pig eosinophils): 54%
CCOC(=O)C(C)(C)n1c(=O)c2cc(Cl)ccc2n(CCCCN2CCC(OC(c3ccccc3)c3ccccc3)CC2)c1=O [Example 35, Ethyl 2-[6-chloro-1-[4-(4-diphenylmethoxypiperidino)butyl]-2,4-dioxo-1,2,3,4-tetrahydroquinazolin-3-yl]isobutyrate hydrochloride]	87	–
Nc1ccc2c(c1)c(=O)[nH]c(=O)n2CCCCN1CCC(OC(c2ccccc2)c2ccccc2)CC1 [Example 40, 6-Amino-2,4-dioxo-1-[4-(4-diphenylmethoxypiperidino)butyl]-1,2,3,4-tetrahydroquinazoline]	90	melting point: 131 to 133 °C
O=C(O)CCn1c(=O)c2ccccc2n(CCCCN2CCC(OC(c3ccccc3)c3ccccc3)CC2)c1=O [Example 52, 2,4-Dioxo-1-[4-(4-diphenylmethoxypiperidino)butyl]-1,2,3,4-tetrahydroquinazoline-3-propionic acid]	88	melting point: 107 to 108 °C
O=C(O)CCCn1c(=O)c2ccccc2n(CCCCN2CCC(OC(c3ccccc3)c3ccccc3)CC2)c1=O [Example 53, 2,4-Dioxo-1-[4-(4-diphenylmethoxypiperidino)butyl]-1,2,3,4-tetrahydroquinazoline-3-butyric acid]	90	–
O=C(O)CCCCn1c(=O)c2ccccc2n(CCCCN2CCC(OC(c3ccccc3)c3ccccc3)CC2)c1=O [Example 60, 2,4-Dioxo-1-[4-(4-diphenylmethoxypiperidino)butyl]-1,2,3,4-tetrahydroquinazoline-3-valeric acid]	93	inhibition at 10 µM (guinea-pig eosinophils): 65%
N#CCCCCn1c(=O)c2ccccc2n(CCCCN2CCC(OC(c3ccccc3)c3ccccc3)CC2)c1=O [Example 93, 2,4-Dioxo-1-[4-(4-diphenylmethoxypiperidino)butyl]-1,2,3,4-tetrahydroquinazoline-3-valeronitrile]	84	inhibition at 10 µM (guinea-pig eosinophils): 62%
CCOC(=O)CCCCn1c(=O)c2ccccc2n(CCCCN2CCC(OC(c3ccccc3)c3ccccc3)CC2)c1=O [Example 94, Ethyl 2,4-dioxo-1-[4-(4-diphenylmethoxypiperidino)butyl]-1,2,3,4-tetrahydroquinazoline-3-valerate hydrochloride]	83	–
CCOC(=O)CCCCCn1c(=O)c2ccccc2n(CCCCN2CCC(OC(c3ccccc3)c3ccccc3)CC2)c1=O.Cl [Example 95, Ethyl 2,4-dioxo-1-[4-(4-diphenylmethoxypiperidino)butyl]-1,2,3,4-tetrahydroquinazoline-3-hexanoate hydrochloride]	85	melting point: 149 to 151 °C
CC(C)(C(=O)O)n1c(=O)c2ccccc2n(CCCCN2CCC(OC(c3ccccc3)c3ccccc3)CC2)c1=O [Example 120, 2-[2,4-Dioxo-1-[4-(4-diphenylmethoxypiperidino)butyl]-1,2,3,4-tetrahydroquinazolin-3-yl]isobutyric acid hydrochloride]	86	–
CC(C)(C(=O)O)n1c(=O)c2cc(F)ccc2n(CCCCN2CCC(OC(c3ccccc3)c3ccccc3)CC2)c1=O [Example 124, 2-[2,4-Dioxo-1-[4-(4-diphenylmethoxypiperidino)butyl]-6-fluoro-1,2,3,4-tetrahydroquinazolin-3-yl]isobutyric acid hydrochloride]	90	–
CC(C)(C(=O)O)n1c(=O)c2cc(F)c(F)cc2n(CCCCN2CCC(OC(c3ccccc3)c3ccccc3)CC2)c1=O [Example 125, 2-[2,4-Dioxo-1-[4-(4-diphenylmethoxypiperidino)butyl]-6,7-difluoro-1,2,3,4-tetrahydroquinazolin-3-yl]isobutyric acid hydrochloride]	81	–

From patent US6407116B1, “Nitrogenous fused-ring compounds, process for the preparation of the same, and drugs” (Takeda Chemical Industries, Inc., priority 1997, dated 2002)
